This is an account of results in US20150354006A1, “MARKERS FOR ACUTE LYMPHOBLASTIC LEUKEMIA” (Novartis AG, priority 2012, published 2015).

For one data set, the system named is JVM-3 line. Nature of the data set: NSD2 Tet-inducible cellular proliferation assay, JVM-3 cells. Format: cell-based. The note with it: JVM-3 line (no E1099K), shRNA induced vs U6-empty control, FIG. 14. The method, then:
(§1) To test the hypothesis that the NSD2 E1099K mutation is important in the pathogenesis of ALL cells, several shRNA knockdown experiments were done. In these experiments, NSD2 shRNA sequences were cloned into pLKO-Tet-On vectors with the H1 promoter or U6 promoter. shRNA lentivitus was generated as described above. Cell lines were infected and selected by puromycin. All tet inducible shRNA cell lines are cultured using tet system approved FBS (Clontech, Cat#: 631106, Mountain View, Calif.). NSD2 Tet-inducible cellular proliferation assay was set up as the following. Cultured cells were placed at 0.2 million cells/ml in 10 ml and split into two wells (5 ml/well) in a 6-well plate. Doxycycline (100 ng/ml final) was added to one well at assay initiation and every 2-3 days to induce NSD2 Tet-inducible shRNAs. On days 4 and 8 the assayed cells (with and without doxycycline) were counted for viability and cell concentration (10^6 cell/ml) with Vi-cell. Assayed cells were then reset to 0.2×10^6 cells/ml in 5 ml every 4 days to keep the cells proliferating in log-phase. On day 8, 1 million cells were collected from assayed cells for Western blot analysis. The shRNA sequences used in the experiments were the following, and are used with this nomenclature in FIG. 13.
(§2) The shRNAs described above were then used in a cell proliferation assay. […]

For data set [1], the system named is H3K36me2 and H3K27me3 methylation. Nature of the data set: Western blot of histone H3 methylation status after shRNA knockdown in SEM cells. It is filed as cell-based. The settings on record: NSD2 E1099K knocked down, FIG. 16. The method, then: NSD2 shRNA sequences were cloned into pLKO-Tet-On vectors with H1 promoter or U6 promoter. shRNA lentivitus was generated as described above. Cell lines were infected and selected by puromycin. All tet inducible shRNA cell lines are cultured using tet system approved FBS (Clontech, Cat#: 631106). The NSD2 Tet-inducible cellular proliferation assay was set up as follows. Cultured cells were placed at 0.2 million cells/ml in 10 ml and split into two wells (5 ml/well) in 6-well plate. Doxycycline (100 ng/ml final) was added to one well at assay initiation and every 2-3 days to induce NSD2 Tet-inducible shRNAs. On days 4 and 8 the assayed cells (with and without doxycycline) were counted for viability and cell concentration (10^6 cell/ml) with Vi-cell. Assayed cells were then reset to 0.2×10^6 cells/ml in 5 ml every 4 days to keep the cells proliferating in log-phase. On days 8, 1 million cells were collected from assayed cells for Western blot analysis. The shRNA sequences used in the experiments were the V17 (SEQ ID NO. 9) and 9A5 (SEQ ID NO. 10) as described in Example 11 above.
For example, this is clearly seen in SEM cells wherein NSD2 E1099K is knocked down with […]. The amount of NSD2 present is very low, as is H3K36me2 methylation.
A general note: Immunoblotting shows a protein as a band on a membrane.

The test system of a further data set is NSD2. The data set can be described thus: Western blot of NSD2 knockdown by inducible shRNA in ALL cell lines. It is filed as cell-based, human. The settings on record: induced with doxycycline, FIG. 13. As to the method: as §1, with “13. […]” for “13.”
The next data set relates to SEM cells. The data set can be described thus: NSD2 Tet-inducible cellular proliferation assay, SEM cells. Format: cell-based. The settings on record: SEM cells (E1099K), shRNA induced vs U6-empty control, FIG. 14. As to the method: as §1, §2
The test system of another data set is KMS-11 cells. Nature of the data set: KMS11-luciferase intravenous multiple myeloma mouse model with doxycycline-inducible NSD2 shRNA. Format: in vivo, SCID-beige mice. The method, then: Six- to eight-week-old female SCID-beige mice (Vital River, Beijing, China) were injected intravenously with 10^7 KMS-11 cells stably transduced with inducible NSD2 shRNA (sh4: 5′ ACATGCTCACTATAGACAA′3 (SEQ ID NO:8)) and tagged with luciferase. The injection of KMS11 cells was in 100 μl PBS with 50% Matrigel, with 8-10 mice per group/treatment. To induce the shRNA expression, mice were fed with water containing 5% sucrose and 0.2 mg/ml doxycycline. Images were taken weekly (with 200 μl/mouse D-luciferase intraperitoneal injection), and pathology such as paralysis was monitored.

Consider “9A5 shRNA: NSD2 shRNA 5' GAATAAGCCTTACGGGAAA 3' (SEQ ID NO. 10), targets NSD2 isoforms containing the SET domain”, for which the “reduction of cell proliferation” value in the data set on JVM-3 line is on record as “about 15%”; in the data set on SEM cells it was “about 60%”. In addition, the H3K27me3 methylation entry in data set [1] is on record as “robust H3K27me3 methylation”. For the same substance, in data set [1], the “amount of NSD2 and H3K36me2 methylation” value is on record as “very low”. For the same substance, in the data set with NSD2, the “expression of NSD2 and MMSET1” value was “capable of reducing expression of NSD2 and MMSET1”.
Regarding “sh4: inducible NSD2 shRNA, 5' ACATGCTCACTATAGACAA 3' (SEQ ID NO:8)”, the tumor growth result in the data set with KMS-11 cells (KMS11-luciferase with inducible NSD2 shRNA, induction with doxycycline for 29 days, FIG. 3A) was “greatly inhibited tumor growth”. Also, the “luciferase activity of tumors” value in the data set with KMS-11 cells (time course with vs without doxycycline induction, FIG. 3B) is “greatly reduced”.
